# Key:
# p38 MAP kinase = biological target: T1, p38 MAP kinase (Homo sapiens, UniProt Q16539); assay: p38 (MAP) kinase in vitro assay (transfer of γ-33P from ATP to Myelin Basic Protein); format: biochemical; conditions: phosphorylated recombinant p38 MAP kinase, MBP substrate, γ-33P-ATP, 30° C.
# T1 construct: made in house; host or cells: E. coli (co-expressed with SEK-1 and MEKK)
# Protocol: This example illustrates a p38 (MAP) kinase in vitro assay useful for evaluating the compounds of the invention.
# The p38 MAP kinase inhibitory activity of compounds of this invention in vitro was determined by measuring the transfer of the γ-phosphate from γ-^33P-ATP by p-38 kinase to Myelin Basic Protein (MBP), using a minor modification of the method described in Ahn, et al., J. Biol. Chem. 266:4220-4227 (1991).
# The phosphorylated form of the recombinant p38 MAP kinase was co-expressed with SEK-1 and MEKK in E. Coli (see, Khokhlatchev, et al., J. Biol. Chem. 272:11057-11062 (1997)) and then purified by affinity chromatography using a Nickel column.
# The phosphorylated p38 MAP kinase was diluted in kinase buffer (20 mM 3-(N-morpholino)propanesulfonic acid, pH 7.2, 25 mM β-glycerol phosphate, 5 mM ethylene glycol-bis(beta-aminoethyl ether)-N,N,N′,N′-tetraacetic acid, 1 mM sodium ortho-vanadate, 1 mM dithiothreitol, 40 mM magnesium chloride). Test compound dissolved in DMSO or only DMSO (control) was added and the samples were incubated for 10 min at 30° C. The kinase reaction was initiated by the addition of a substrate cocktail containing MBP and γ-^33P-ATP. […] The phosphorylated MBP was then separated from the residual γ-^33P-ATP using a phosphocellulose membrane (Millipore, Bedfrod, Mass.) and quantitated using a scintillation counter (Packard, Meriden, Conn.).
# T1 sequence (Q16539 whole entry): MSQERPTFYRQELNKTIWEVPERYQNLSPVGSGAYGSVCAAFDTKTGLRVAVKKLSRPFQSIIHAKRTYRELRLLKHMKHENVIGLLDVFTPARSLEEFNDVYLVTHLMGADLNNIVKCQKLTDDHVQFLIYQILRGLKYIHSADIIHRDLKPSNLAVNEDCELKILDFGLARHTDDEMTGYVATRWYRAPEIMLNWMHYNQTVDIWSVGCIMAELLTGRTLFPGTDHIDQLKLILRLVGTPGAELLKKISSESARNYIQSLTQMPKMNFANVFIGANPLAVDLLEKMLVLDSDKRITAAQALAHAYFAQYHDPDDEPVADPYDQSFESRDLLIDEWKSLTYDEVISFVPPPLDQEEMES
IC50 (p38 MAP kinase),melting point,SMILES
~2 nM,,"CS(=O)(=O)c1ccc(Cl)c(-c2n[nH]c3nc(Oc4ccc(F)cc4F)nc(NC(CO)CO)c23)c1 [Compound 4, 2-[3-(2-Chloro-5-methanesulfonyl-phenyl)-6-(2,4-difluoro-phenoxy)-1H-pyrazolo[3,4-d]pyrimidin-4-ylamino]-propane-1,3-diol]"
,133 to 135 °C,"Cc1ccc(S(C)(=O)=O)cc1-c1n[nH]c2nc(Oc3ccc(F)cc3F)ncc12 [Compound 5, 6-(2,4-Difluoro-phenoxy)-3-(5-methanesulfonyl-2-methyl-phenyl)-1H-pyrazolo[3,4-d]pyrimidine]"
,251.6 to 252.2 °C,"CS(=O)(=O)c1ccc(Cl)c(-c2n[nH]c3nc(Oc4ccc(F)cc4F)ncc23)c1 [Compound 2, 3-(2-Chloro-5-methanesulfonyl-phenyl)-6-(2,4-difluoro-phenoxy)-1H-pyrazolo[3,4-d]pyrimidine]"

# — patent US7563799B2, “Substituted pyrazolo[3,4-D]pyrimidines as p38 map kinase inhibitors” (Roche Palo Alto LLC, priority 2005, dated 2009)
